According to publication PMC9517990 (Communications Biology, 2022):

Experiments:
[1] = test system: A/South Korea/90207/2020 NA-H275Y virus; assay type: cell-based, influenza A(H1N1)pdm09 virus
[2] = test system: A/South Korea/90207/2020 PA-I38T virus; assay type: cell-based, influenza A(H1N1)pdm09 virus
[3] = test system: A/South Korea/90207/2020 NA-H275Y + PA-I38T virus; assay type: cell-based, influenza A(H1N1)pdm09 virus
[4] = target: neuraminidase of A/South Korea/90207/2020 NA-H275Y virus (Influenza A virus (A(H1N1)pdm09), UniProt A0A0X9QTS2, H275Y); assay type: biochemical
[5] = target: neuraminidase of A/South Korea/90207/2020 PA-I38T virus (Influenza A virus (A(H1N1)pdm09), UniProt A0A0X9QTS2); assay type: biochemical
[6] = target: neuraminidase of A/South Korea/90207/2020 NA-H275Y + PA-I38T virus (Influenza A virus (A(H1N1)pdm09), UniProt A0A0X9QTS2, H275Y); assay type: biochemical
[7] = read-out: EC50 nM ± SD (column headed IC50; footnote: EC50)

O=C1c2c(O)c(=O)ccn2N([C@@H]2c3ccccc3SCc3c2ccc(F)c3F)[C@@H]2COCCN12 [Baloxavir, Baloxavir acid]
EC50 fold change compared to WT [1]: 1 fold | EC50 [1, 7]: 1.2 ± 0.3 nM | EC50 fold change compared to WT [2]: 373 fold | EC50 [2, 7]: 380 nM | EC50 fold change compared to WT [3]: 190 fold | EC50 [3, 7]: 194 nM

CCC(CC)[C@H](NC(C)=O)[C@@H]1[C@H](O)[C@@H](C(=O)O)C[C@H]1N=C(N)N [Peramivir, peramivir]
IC50 [4]: 16.8 ± 3.1 nM | IC50 [5]: 0.26 nM | IC50 fold change compared to WT [5]: 2 fold | IC50 [6]: 16.2 nM
